In patent US20250042912A1, “NOVEL NON-FLUORINATED QUINOLONE COMPOUND AND USE THEREOF” (priority 2021, published 2025):
In brackets after ≈: the same amount, converted by molar mass.

What was measured:
[1] = tested on: Propionibacterium acnes ATCC 6919; test: Acne model in mice: ear bacterial load; format: in vivo
Experimental: Experimental strain: Propionibacterium acnes ATCC 6919 (Beijing Biobw Biotechnology Co., Ltd.) Experimental animals: Balb/C mice (Zhejiang Vital River Laboratory Animal Technology Co., Ltd.) Balb/C mice were grouped and numbered, and adaptively fed for one week. On the day of modeling, Propionibacterium acnes was taken, and OD600 was measured using a microplate reader. BH1 culture medium was diluted to OD600=1 (about 5×10^8 CFU/mL), centrifuged to discard supernatant, and the remaining culture was diluted to 1×10^8 CFU/mL with PBS. Once the molding began, the mice were anesthetized with a small animal anesthesia machine, the air flow and isoflurane content of the anesthesia machine were adjusted, and the mice were placed in an anesthesia induction chamber for anesthesia induction. After there were no obvious signs of activity, the mice were taken out and their toes were clamped with tweezers or hemostatic forceps for toe pinching reaction testing, if there was no retraction pain response, the surgery could be performed. The anesthetized mice were placed on a mice plate and fixed, the air flow or isoflurane content was adjusted to maintain anesthesia (isoflurane anesthesia induction content of 3% to 4%, anesthesia maintenance content of 1% to 2%, and air flow rate of 300 mL/min to 500 mL/min). […]

[2] = tested on: Propionibacterium acnes ATCC 6919; test: Minimum inhibitory concentration (MIC) assay, Propionibacterium acnes ATCC 6919; format: cell-based; details: Cutibacterium acnes, ATCC6919; anaerobic culture 35+/-2°C, 48 hours; read with naked eyes
Experimental: On the day of the experiment, the compound in the flask was dissolved in 100% DMSO until the concentration of mother liquor was 0.4 mg/mL. If the mother liquor was not used on the same day, it was stored at −80° C. for future use. The compound mother liquor and standard antibiotics were subjected to 2-fold gradient dilution with corresponding solvents on a 96-microwell plate (V-bottom) to obtain 100× working solutions (Well 1 to Well 7) in sequence. Among them, the concentrations of the compound were 400 μg/mL, 200 μg/mL, 100 μg/mL, 50 μg/mL, 25 μg/mL, 12.5 μg/mL, 6.25 μg/mL, and 3.125 μg/mL. 100% DMSO was used as growth control (Well 8). As such, the compound motherplate was obtained. Two days before the experiment, anaerobic bacteria (Propionibacterium acnes) stored in a cryogenic tube at −80° C. were scribed on an MBA (Brucella Agar+5% (v/v) defibrillated sheep blood+[…] Hemin+1 μg/mLVitamin K1) plate. The anaerobic bacteria were placed in a 35+/−2° C. anaerobic incubator for 42-48 hours of cultivation. On the day of the experiment, the plate was taken out, clones were picked from the plate and suspended in physiological saline. Then, the turbidity of the bacterial suspension (containing 1.0-2.0×10^8 CFU/mL) was adjusted to OD600=0.2 by a turbidity meter. Then, the adjusted bacterial suspension was diluted to an appropriate concentration with the assay culture medium: about 5×10^5 CFU/mL for aerobic bacteria, and about 1×10^6 CFU/mL for anaerobic bacteria. As such, the inoculating solution was obtained. […] Therefore, the final assay concentrations of the compound were 4 μg/mL, 2 μg/mL, 1 μg/mL, 0.5 μg/mL, 0.25 μg/mL, 0.125 μg/mL, 0.06 μg/mL and 0.03 μg/mL. The total volume of each well on the assay plate was 200 μL: containing 1% DMSO, about 5×10^5 CFU/mL of aerobic bacteria and about 1×10^6 CFU/mL of anaerobic bacteria. All assay plates for aerobic bacteria were aerobically cultured at 35+/−2° C. for 16 to 20 hours, and all assay plates for anaerobic bacteria were anaerobically cultured in an anaerobic incubator at 35+/−2° C. for 48 hours. Note: for anaerobic bacteria, both the preparation of bacterial solution in step 2 and the inoculation of bacterial solution in step 3 were operated in an anaerobic workstation.

SMILES: CN(C)c1cc2c(cn1)-c1ccc3c(=O)c(C(=O)O)cn(C4CC4)c3c1COC2 [Compound 6]
- Ear bacterial load Log10 CFU/Ear Mean ± SD ([1]; Balb/C mice, left ear homogenate, 48 hours after injection of Propionibacterium acnes, 15 μL applied at 4, 20, 28, 44 hours, drugs as hydrochloride): 5.53 ± 0.10 Log10 CFU/Ear
- bacterial loads in the left ears of mice after treatment ([1]; compared with acne model group, p<0.001, in words): significantly decreased
- MIC [2]: 0.03 µg/mL (≈ 0.0766 µM)
